Source: patent US4001218A, “Penicillins” (Bayer Aktiengesellschaft, priority 1972, dated 1977)

What was measured:
Klebsiella K 10 = test: MIC, test tube series dilution test, Klebsiella K 10; type: cell-based; details: 24 hours, 37°C
Klebsiella 63 = test: MIC, test tube series dilution test, Klebsiella 63; type: cell-based; details: Klebsiella 63; 24 hours, 37°C
Proteus morg. 932 = test: MIC, test tube series dilution test, Proteus morg. 932; type: cell-based; details: 24 hours, 37°C
Enterococcus 9790 = test: MIC, test tube series dilution test, Enterococcus 9790; type: cell-based; details: 24 hours, 37°C
Staph. aureus 133 = type: cell-based, Staphylococcus aureus; details: Staph. aureus 133; 24 hours, 37°C
E. coli 14 = type: cell-based; details: E. coli 14; 24 hours, 37°C
E. coli C 165 = test: MIC, test tube series dilution test, E. coli C 165; type: cell-based; details: 24 hours, 37°C
E. coli 183/58 = test: MIC, test tube series dilution test, E. coli 183/58; type: cell-based; details: 24 hours, 37°C
Psdm. aerug. F 41 = test: MIC, test tube series dilution test, Psdm. aerug. F 41; type: cell-based, Pseudomonas aeruginosa; details: Psdm. aerug. F 41; 24 hours, 37°C
Psdm. aerug. Walter = test: MIC, test tube series dilution test, Psdm. aerug. Walter; type: cell-based, Pseudomonas aeruginosa; details: Psdm. aerug. Walter; 24 hours, 37°C
Proteus vulg. 1017 = type: cell-based, Proteus vulgaris; details: Proteus 1017; 24 hours, 37°C
E. coli A 261 = test: MIC, test tube series dilution test, E. coli A 261; type: cell-based; details: 24 hours, 37°C
Staph. aureus 1756 = test: MIC, test tube series dilution test, Staph. aureus 1756; type: cell-based, Staphylococcus aureus; details: Staph. aureus 1756; 24 hours, 37°C

SMILES	MIC (Klebsiella K 10)	MIC (Klebsiella 63)	MIC (Proteus morg. 932)	MIC (Enterococcus 9790)	MIC (Staph. aureus 133) [U/ml]	MIC (E. coli 14)	MIC (E. coli C 165)	MIC (E. coli 183/58)	MIC (Psdm. aerug. F 41)	MIC (Psdm. aerug. Walter)	MIC (Proteus vulg. 1017)	MIC (E. coli A 261) [U/ml]	MIC (Staph. aureus 1756)
CC(N=[N+]=[N-])C(=O)Nc1ccc(C(=O)N[C@@H](C(=O)N[C@@H]2C(=O)N3[C@@H]2SC(C)(C)[C@@H]3C(=O)O)c2ccccc2)cc1 (stereo partly drawn) [Example 37]	64 U/ml	32 U/ml	~ 128 U/ml	16 U/ml	< 1	4 U/ml	8 U/ml	16 U/ml	~ 32 U/ml	32 U/ml	128 U/ml	> 256	64 U/ml
CC1(C)S[C@@H]2[C@H](NC(=O)[C@H](NC(=O)c3ccc(NC(=O)C=Cc4ccccc4)cc3)c3ccccc3)C(=O)N2[C@H]1C(=O)O [Example 35]	16 U/ml	8 U/ml	128 U/ml	~ 4 U/ml	< 1	< 1 U/ml	4 U/ml	< 1 U/ml	4 U/ml	4 U/ml	~ 1 U/ml	> 256	8 U/ml
CC1(C)S[C@@H]2[C@H](NC(=O)[C@H](NC(=O)c3ccc(NC(=O)c4ccc(N=[N+]=[N-])cc4)cc3)c3ccccc3)C(=O)N2[C@H]1C(=O)O [Example 26]	16 U/ml	4 U/ml	8 U/ml	16 U/ml	< 1	< 1 U/ml	4 U/ml	< 1 U/ml	16 U/ml	16 U/ml	16 U/ml	256	64 U/ml
CC1(C)S[C@@H]2[C@H](NC(=O)[C@H](NC(=O)c3ccc(NC(=O)CN=[N+]=[N-])cc3)c3ccccc3)C(=O)N2[C@H]1C(=O)O [Example 36]	128 U/ml	64 U/ml	–	8 U/ml	< 1	8 U/ml	~ 16 U/ml	32 U/ml	32 U/ml	~ 64 U/ml	128 U/ml	> 256	64 U/ml
CC1(C)S[C@@H]2[C@H](NC(=O)[C@H](NC(=O)c3ccc(NC(=O)c4ccc(F)cc4)cc3)c3ccccc3)C(=O)N2[C@H]1C(=O)O [Example 17]	64 U/ml	32 U/ml	128 U/ml	16 U/ml	< 1	4 U/ml	~ 8 U/ml	8 U/ml	32 U/ml	32 U/ml	~ 32 U/ml	> 256	32 U/ml
CC1(C)S[C@@H]2[C@H](NC(=O)[C@H](NC(=O)c3ccc(NC(=O)C4CC=CCC4)cc3)c3ccccc3)C(=O)N2[C@H]1C(=O)O (single isomer, unassigned) [Example 12, sodium D(-)-α-[4-(3-cyclohexene-1-carbonylamino-benzoylamino)]-benzylpenicillin]	32 U/ml	32 U/ml	> 256 U/ml	~ 8 U/ml	< 1	~ 4 U/ml	8 U/ml	16 U/ml	32 U/ml	32 U/ml	16 U/ml	> 256	16 U/ml
CC1(C)S[C@@H]2[C@H](NC(=O)[C@H](NC(=O)c3ccc(NC(=O)C4CCC=CCC4)cc3)c3ccccc3)C(=O)N2[C@H]1C(=O)O [Example 14, sodium D(-)-α-[4-(4-cycloheptene-1-carbonylamino-benzoylamino)]-benzylpenicillin]	32 U/ml	32 U/ml	256 U/ml	8 U/ml	< 1	< 1 U/ml	~ 8 U/ml	16 U/ml	32 U/ml	32 U/ml	16 U/ml	> 256	32 U/ml
CC1(C)S[C@@H]2[C@H](NC(=O)[C@H](NC(=O)CNC(=O)c3ccc(NC(=O)C4CCCC4)cc3)c3ccccc3)C(=O)N2[C@H]1C(=O)O [Example 66]	64 U/ml	32 U/ml	> 256 U/ml	32 U/ml	< 1	8 U/ml	32 U/ml	64 U/ml	64 U/ml	128 U/ml	32 U/ml	> 256	32 U/ml
CC1(C)S[C@@H]2[C@H](NC(=O)[C@H](N)c3ccccc3)C(=O)N2[C@H]1C(=O)O [Ampicillin, D(-)-α-aminobenzylpenicillin, reference compound]	128 U/ml	128 U/ml	256 U/ml	4 U/ml	< 1	> 1 U/ml	8 U/ml	200 U/ml	> 256 U/ml	> 256 U/ml	256 U/ml	8	256 U/ml
CC1(C)S[C@@H]2[C@H](NC(=O)[C@H](NC(=O)c3ccc(NC(=O)C4=CCCCC4)cc3)c3ccccc3)C(=O)N2[C@H]1C(=O)O [Example 11, sodium D(-)-α-[4-(1-cyclohexene-1-carbonylamino-benzoylamino)]-benzylpenicillin]	64 U/ml	32 U/ml	128 U/ml	16 U/ml	< 1	4 U/ml	8 U/ml	8 U/ml	32 U/ml	32 U/ml	64 U/ml	> 256	128 U/ml
CC1(C)S[C@@H]2[C@H](NC(=O)[C@H](NC(=O)c3ccc([N+](=O)[O-])cc3)c3ccccc3)C(=O)N2[C@H]1C(=O)O [Example 33, sodium D(-)-α-(4-nitro-benzoylamino)-benzylpenicillin]	128 U/ml	128 U/ml	256 U/ml	4 U/ml	< 1	~ 8 U/ml	~ 32 U/ml	32 U/ml	64 U/ml	–	64 U/ml	> 256	32 U/ml
COc1cc(OC)cc(C(=O)Nc2ccc(C(=O)N[C@@H](C(=O)N[C@@H]3C(=O)N4[C@@H]3SC(C)(C)[C@@H]4C(=O)O)c3ccccc3)cc2)c1 [Example 18]	64 U/ml	64 U/ml	128 U/ml	8 U/ml	< 1	4 U/ml	8 U/ml	8 U/ml	16 U/ml	16 U/ml	64 U/ml	> 256	16 U/ml
CC1(C)S[C@@H]2[C@H](NC(=O)[C@H](NC(=O)c3ccc(NC(N)=O)cc3)c3ccccc3)C(=O)N2[C@H]1C(=O)O [Example 30, sodium D(-)-α-(4-carbamoylaminobenzoylamino)-benzylpenicillin]	> 256 U/ml	256 U/ml	> 256 U/ml	8 U/ml	< 1	~ 32 U/ml	32 U/ml	256 U/ml	128 U/ml	> 256 U/ml	> 256 U/ml	> 256	64 U/ml
CC1(C)S[C@@H]2[C@H](NC(=O)[C@H](NC(=O)c3cc(NC(=O)C4CCC4)ccc3Cl)c3ccccc3)C(=O)N2[C@H]1C(=O)O [Example 52]	128-256 U/ml	128-256 U/ml	–	32-64 U/ml	< 1	–	128-256 U/ml	32-64 U/ml	128-256 U/ml	128-256 U/ml	> 256 U/ml	–	32-64 U/ml
CC1(C)S[C@@H]2[C@H](NC(=O)[C@H](NC(=O)c3ccc(NC(=O)CC4C=CCC4)cc3)c3ccccc3)C(=O)N2[C@H]1C(=O)[O-].[Na+] (stereo partly drawn) [Example 8, sodium D(-)-α-(4-[2-cyclopentene-1-acetamido-benzoylamino])-benzylpenicillin]	64 U/ml	32 U/ml	128 U/ml	8 U/ml	< 1	–	8 U/ml	16 U/ml	64 U/ml	64 U/ml	64 U/ml	> 256	8 U/ml
